≈ marks a conversion by molar mass, not a printed value. Read-outs that look alike come from different tables or passages of the source.
Tests used:
[1] = system: Micrococcus luteus ATCC9341; experiment: Paper disc assay, Micrococcus luteus; assay type: cell-based; settings: column 1
Protocol: (§1) (2) Antibacterial activities against other bacteria were determined with Micrococcus luteus ATCC9341 (1), Bacillus subtilis […] (s), Escherichia coli NIHJ (c), Xanthomonas campestris KB88 (X), Mucor racemosus IFO 4581 (Mu) and Candida albicans ATCC 64548 (Ca).
(§2) Bacillus subtilis ATCC6633 was incubated in Davis synthetic medium and then the seed broth was combined with the medium in the ratio of 1:99 to obtain a test plate. Micrococcus luteus ATCC9341, Escherichia coli NIHJ and Xanthomonas campestris KB88 were respectively incubated in Nutrient agar medium and inoculated at 0.2%, 0.5% and 1.0%. Mucor racemosus IFO 4581 and Candida albicans ATCC 64548 were respectively incubated in GY agar medium and then inoculated at 0.3% and 0.2%.
(§3) A paper disc (ADVANTEC, Φ:6 mm) was impregnated with a solution of test compound and dried under reduced pressure. The paper disc was put on the test plate and it was incubated for 24 hours at 37° C. After incubation, the inhibition zone diameter and clarity (A to E) were determined.

[2] = system: Bacillus subtilis ATCC6633; experiment: Paper disc assay, Bacillus subtilis; assay type: cell-based; settings: S
Protocol: as §1, §2, §3

[3] = system: Xanthomonas campestris KB88; experiment: Paper disc assay, Xanthomonas campestris; assay type: cell-based; settings: X
Protocol: as §1, §2, §3

[4] = system: Actinobacillus pleuropneumoniae, 6 isolates; experiment: MIC against Actinobacillus pleuropneumoniae isolates; assay type: cell-based
Protocol: (§4) Minimal inhibitory concentrations (MICs) were determined against the most prevalent pathogens in cattle (Mannheimia Haemolytica, 3 isolates) and swine (A. pleuropneumoniae, 6 isolates). In addition the activity of several compounds was tested against two bacterial species, i.e. Mannheimia haemolytica and Actinobacillus pleuropneumoniae, which are considered as the most important bacterial respiratory pathogens in cattle and swine, respectively.

[5] = system: Mannheimia haemolytica, 3 isolates; experiment: MIC against Mannheimia haemolytica isolates; assay type: cell-based; settings: Mannheimia haemolytica
Protocol: as §4

[6] = system: M. hemolytica KB345 (Tilmicosin-sensitivity strain); experiment: Paper disc assay, M. hemolytica KB345; assay type: cell-based, Mannhemia hemolytica; settings: Table 4
Protocol: (1) Antibacterial activities against Mannheimia and Pasteurella were determined by the following steps: • 1) M. hemolytica KB345 (Tilmicosin-sensitivity strain) and M. hemolytica KB346 (Tilmicosin-low sensitivity strain) were provided. KB 345 strain stored at −80° C. was seeded to BHIB agar medium (10 mL) by using Microbank beads (Pro-Lab) and platinum nail. After statically incubating the KB 345 strain for 24 hours at 37° C., it was seeded to maintaining slant BHIB agar medium (7 mL) by using platinum loop, further statically incubated for 24 hours at 37° C. to obtain slant. One platinum loop of KB 345 strain stored at the slant was inoculated into a large test tube charged with BHIB liquid medium (10 mL) and then incubated for 24 hours at 37° C. with shaking. • 2) A paper disc (ADVANTEC, Φ:6 mm) was impregnated with a solution of test compound and dried under reduced pressure. • 3) To a melted BHIB agar medium was inoculated 1% of the broth obtained from step 1) above to prepare a test plate. After the medium set, the paper disc prepared in step 2) above was put on the plate and it was incubated at 37° C. • 4) After one day, the inhibition zone diameter and clarity (A to E) were determined. For KB346 strain, the same procedures were repeated.

[7] = 6ISOLATES, 6 Actinobacillus pleuropneumoniae isolates, broth dilution method, read-out: Range of minimum inhibitory concentrations (MIC)
[8] = 3ISOLATES, 3 Mannheimia haemolytica isolates, broth dilution method, read-out: Range of minimum inhibitory concentrations (MIC)

Compound: CC[C@H]1OC(=O)C[C@@H](O)[C@H](C)[C@@H](O[C@@H]2OC(C)[C@@H](O)C(N(C)C)C2O)[C@@H](CCn2cc(-c3ccccn3)nn2)C[C@@H](C)C(=O)/C=C/C(C)=C/[C@@H]1CO[C@@H]1OC(C)[C@@H](O)C(OC)C1OC (stereo partly shown) [YT12, 20-(4-(pyridine-2-yl)-1H-1,2,3-triazol-1-yl)-20-deoxodesmycosin]
- Inhibition zone ([1]; 0.1 mg/6 mm disc): 12 mm
- Inhibition zone ([1]; 1 mg/6 mm disc): 18.5 mm
- Inhibition zone ([1]; 10 mg/6 mm disc): 25 mm
- Inhibition zone ([2]; 0.1 mg/6 mm disc): 7 mm
- Inhibition zone ([2]; 1 mg/6 mm disc): 12.5 mm
- Inhibition zone ([2]; 10 mg/6 mm disc): 14 mm
- Inhibition zone ([3]; 0.1 mg/6 mm disc): 7 mm
- Inhibition zone ([3]; 10 mg/6 mm disc): 27 mm

Compound: CC[C@H]1OC(=O)C[C@@H](O)[C@H](C)[C@@H](O[C@@H]2OC(C)[C@@H](O)C(N(C)C)C2O)[C@@H](CCn2cc(-c3ccccc3)nn2)C[C@@H](C)C(=O)/C=C/C(C)=C/[C@@H]1CO[C@@H]1OC(C)[C@@H](O)C(OC)C1OC (stereo partly shown) [YT13, 20-(4-phenyl-1H-1,2,3-triazol-1-yl)-20-deoxodesmycosin]
- Inhibition zone ([1]; 0.1 mg/6 mm disc): 15 mm
- Inhibition zone ([1]; 1 mg/6 mm disc): 21.5 mm
- Inhibition zone ([1]; 10 mg/6 mm disc): 27.5 mm
- Inhibition zone ([2]; 0.1 mg/6 mm disc): 9.5 mm
- Inhibition zone ([2]; 1 mg/6 mm disc): 12 mm
- Inhibition zone ([2]; 10 mg/6 mm disc): 15.5 mm
- Inhibition zone ([3]; 0.1 mg/6 mm disc): 8 mm
- Inhibition zone ([3]; 1 mg/6 mm disc): 17 mm
- Inhibition zone ([3]; 10 mg/6 mm disc): 23.5 mm

Compound: CC[C@H]1OC(=O)C[C@@H](O)[C@H](C)[C@@H](O[C@@H]2OC(C)[C@@H](O)C(N(C)C)C2O)[C@@H](CC=O)C[C@@H](C)C(=O)/C=C/C(C)=C/[C@@H]1Cn1cc(-c2ccc(-c3ccccc3)cc2)nn1 (stereo partly shown) [YT104, 23-(4-biphenyl-1H-1,2,3-triazol-1-yl)-23-Deoxy-5-O-mycaminosyltylonolide]
- MIC ([4]; Actinobacillus pleuropneumoniae, pleuropneumoniae isolate 1, read-out: MICs): > 16 µg/mL
- MICs ([4]; pleuropneumoniae isolate 2): >16 µg/mL
- MICs ([4]; pleuropneumoniae isolate 3): >16 µg/mL
- MICs ([4]; pleuropneumoniae isolate 4): >16 µg/mL
- MICs ([4]; pleuropneumoniae isolate 5): >16 µg/mL
- MICs ([4]; pleuropneumoniae isolate 6): >16 µg/mL
- MIC ([5]; M. haemolytica isolate 1, read-out: MICs): 8 µg/mL (≈ 9.99 µM)
- MIC ([5]; M. haemolytica isolate 2, read-out: MICs): 4 µg/mL (≈ 4.99 µM)
- MIC ([5]; M. haemolytica isolate 3, read-out: MICs): 8 µg/mL (≈ 9.99 µM)

Compound: CCC1OC(=O)CC(O)C(C)C(OC2OC(C)C(O)C(N(C)C)C2O)C(CCn2cc(-c3ccccc3)nn2)CC(C)C(=O)C=CC(C)=CC1CI (stereo not shown) [YT113]
- Inhibition zone ([6]; 10 mg/6 mm disk): 11.0 mm
- Inhibition zone ([6]; 30 mg/6 mm disk): 18.0 mm
- Inhibition zone ([6]; 100 mg/6 mm disk): 19.5 mm

Compound: CCC1OC(=O)CC(O)C(C)C(OC2OC(C)C(O)C(N(C)C)C2O)C(CCn2cc(-c3ccccc3)nn2)CC(C)C(=O)C=CC(C)=CC1CN=[N+]=[N-] (stereo not shown) [YT114, 20-(4-phenyl-1H-1,2,3-triazol-1-yl)-20-deoxo-23-azido-23-deoxy-5-O-mycaminosyltylonolide]
- Inhibition zone ([6]; 3 mg/6 mm disk): 11.5 mm
- Inhibition zone ([6]; 10 mg/6 mm disk): 17.5 mm
- Inhibition zone ([6]; 30 mg/6 mm disk): 21.0 mm
- Inhibition zone ([6]; 100 mg/6 mm disk): 21.0 mm

Compound: CC[C@H]1OC(=O)C[C@@H](O)[C@H](C)[C@@H](O[C@@H]2OC(C)[C@@H](O)C(N(C)C)C2O)[C@@H](CCNCCn2cc(-c3ccccc3)nn2)C[C@@H](C)C(=O)/C=C/C(C)=C/[C@@H]1CO (stereo partly shown) [YT617]
- MIC [4, 7]: 4 µg/mL (≈ 5.19 µM)
- MIC [5, 8]: 2 to 8 µg/mL (≈ 2.6 to 10.4 µM)

Compound: CC[C@H]1OC(=O)C[C@@H](O)[C@H](C)[C@@H](O[C@@H]2OC(C)[C@@H](O)C(N(C)C)C2O)[C@@H](CCN(C)Cc2cn(CCNCc3ccccc3)nn2)C[C@@H](C)C(=O)/C=C/C(C)=C/[C@@H]1CO (stereo partly shown) [YT653]
- MIC [4, 7]: 4 to 8 µg/mL (≈ 4.84 to 9.67 µM)
- MIC [5, 8]: 1 to 8 µg/mL (≈ 1.21 to 9.67 µM)

Compound: CC[C@H]1OC(=O)C[C@@H](O)[C@H](C)[C@@H](O[C@@H]2OC(C)[C@@H](O)C(N(C)C)C2O)[C@@H](CCN(CCn2cc(-c3cccc(N)c3)nn2)Cc2ccccc2)C[C@@H](C)C(=O)/C=C/C(C)=C/[C@@H]1CO (stereo partly shown) [YT657]
- MIC [4, 7]: 2 µg/mL (≈ 2.29 µM)
- MIC [5, 8]: 2 to 4 µg/mL (≈ 2.29 to 4.57 µM)

Compound: CC[C@H]1OC(=O)C[C@@H](O)[C@H](C)[C@@H](O[C@@H]2OC(C)[C@@H](O)C(N(C)C)C2O)[C@@H](CCN(CCn2cc(-c3cccnc3)nn2)Cc2ccccc2)C[C@@H](C)C(=O)/C=C/C(C)=C/[C@@H]1CO (stereo partly shown) [YT664]
- MIC [4, 7]: 2 to 8 µg/mL (≈ 2.32 to 9.29 µM)
- MIC [5, 8]: 4 to 8 µg/mL (≈ 4.65 to 9.29 µM)

Compound: CC[C@H]1OC(=O)C[C@@H](O)[C@H](C)[C@@H](O[C@@H]2OC(C)[C@@H](O)C(N(C)C)C2O)[C@@H](CCN(CCn2cc(-c3ccsc3)nn2)Cc2ccccc2)C[C@@H](C)C(=O)/C=C/C(C)=C/[C@@H]1CO (stereo partly shown) [YT674]
- MIC [4, 7]: 2 µg/mL (≈ 2.31 µM)
- MIC [5, 8]: 2 to 4 µg/mL (≈ 2.31 to 4.62 µM)

Compound: CC[C@H]1OC(=O)C[C@@H](O)[C@H](C)[C@@H](O[C@@H]2OC(C)[C@@H](O)C(N(C)C)C2O)[C@@H](CCN(CCn2cc(-c3ccccc3)nn2)Cc2ccc(I)cc2)C[C@@H](C)C(=O)/C=C/C(C)=C/[C@@H]1CO (stereo partly shown) [YT700]
- MIC [4, 7]: 8 µg/mL (≈ 8.11 µM)
- MIC [5, 8]: 4 to 8 µg/mL (≈ 4.06 to 8.11 µM)

Compound: CC[C@H]1OC(=O)C[C@@H](O)[C@H](C)[C@@H](O[C@@H]2OC(C)[C@@H](O)C(N(C)C)C2O)[C@@H](CCN(CCn2cc(-c3ccsc3)nn2)Cc2ccc(I)cc2)C[C@@H](C)C(=O)/C=C/C(C)=C/[C@@H]1CO (stereo partly shown) [YT705]
- MIC [4, 7]: 8 µg/mL (≈ 8.06 µM)
- MIC [5, 8]: 8 µg/mL (≈ 8.06 µM)

Compound: CC[C@H]1OC(=O)C[C@@H](O)[C@H](C)[C@@H](O[C@@H]2OC(C)[C@@H](O)C(N(C)C)C2O)[C@@H](CCN(C)Cc2cn(-c3ccc4ncccc4c3)nn2)C[C@@H](C)C(=O)/C=C/C(C)=C/[C@@H]1CO (stereo partly shown) [YT710]
- MIC [4, 7]: 4 µg/mL (≈ 4.87 µM)
- MIC [5, 8]: 2 to 4 µg/mL (≈ 2.44 to 4.87 µM)

Compound: CC[C@H]1OC(=O)C[C@@H](O)[C@H](C)[C@@H](O[C@@H]2OC(C)[C@@H](O)C(N(C)C)C2O)[C@@H](CCNCCn2cc(-c3ccsc3)nn2)C[C@@H](C)C(=O)/C=C/C(C)=C/[C@@H]1CO (stereo partly shown) [YT717]
- MIC [4, 7]: 4 µg/mL (≈ 5.15 µM)
- MIC [5, 8]: 2 to 8 µg/mL (≈ 2.58 to 10.3 µM)

Compound: CC[C@H]1OC(=O)C[C@@H](O)[C@H](C)[C@@H](O[C@@H]2OC(C)[C@@H](O)C(N(C)C)C2O)[C@@H](CCNCCn2cc(-c3ccccc3[N+](=O)[O-])nn2)C[C@@H](C)C(=O)/C=C/C(C)=C/[C@@H]1CO (stereo partly shown) [YT718]
- MIC [4, 7]: 8 µg/mL (≈ 9.82 µM)
- MIC [5, 8]: 2 to 8 µg/mL (≈ 2.45 to 9.82 µM)

Compound: CC[C@H]1OC(=O)C[C@@H](O)[C@H](C)[C@@H](O[C@@H]2OC(C)[C@@H](O)C(N(C)C)C2O)[C@@H](CCNCCn2cc(-c3cc(C)c(C)cc3C)nn2)C[C@@H](C)C(=O)/C=C/C(C)=C/[C@@H]1CO (stereo partly shown) [YT723]
- MIC [4, 7]: 8 µg/mL (≈ 9.85 µM)
- MIC [5, 8]: 2 to 8 µg/mL (≈ 2.46 to 9.85 µM)

Compound: CC[C@H]1OC(=O)C[C@@H](O)[C@H](C)[C@@H](O[C@@H]2OC(C)[C@@H](O)C(N(C)C)C2O)[C@@H](CCn2cc(-c3ccsc3)nn2)C[C@@H](C)C(=O)/C=C/C(C)=C/[C@@H]1CO (stereo partly shown) [YT726]
- MIC [4, 7]: 8 µg/mL (≈ 10.9 µM)
- MIC [5, 8]: 8 µg/mL (≈ 10.9 µM)

Compound: CC[C@H]1OC(=O)C[C@@H](O)[C@H](C)[C@@H](O[C@@H]2OC(C)[C@@H](O)C(N(C)C)C2O)[C@@H](CCn2cc(-c3cnc4ccccc4c3)nn2)C[C@@H](C)C(=O)/C=C/C(C)=C/[C@@H]1CO (stereo partly shown) [YT733]
- MIC [4, 7]: 4 µg/mL (≈ 5.14 µM)
- MIC [5, 8]: 2 to 4 µg/mL (≈ 2.57 to 5.14 µM)

Compound: CC[C@H]1OC(=O)C[C@@H](O)[C@H](C)[C@@H](O[C@@H]2OC(C)[C@@H](O)C(N(C)C)C2O)[C@@H](CCn2cc(-c3ccc4ccccc4n3)nn2)C[C@@H](C)C(=O)/C=C/C(C)=C/[C@@H]1CO (stereo partly shown) [YT734]
- MIC [4, 7]: 2 to 4 µg/mL (≈ 2.57 to 5.14 µM)
- MIC [5, 8]: 2 to 4 µg/mL (≈ 2.57 to 5.14 µM)

— patent US9771389B2, “Tylosin derivatives and method for preparation thereof” (BAYER ANIMAL HEALTH GMBH, priority 2013, dated 2017)
